Reference: publication doi:10.1101/2025.01.23.634542, “Convergent Agonist and Heat Activation of Nociceptor TRPM3” (bioRxiv, 2025)

Key:
[1] = target: wild-type rabbit TRPM3 (rTRPM3) (Oryctolagus cuniculus, UniProt G1T6W8); assay: Whole-cell patch-clamp agonist dose-response, wild-type TRPM3 in tsA cells; format: cell-based; details: WT TRPM3, whole-cell current at +80 mV
[2] = system: TRPM3 mutants at the interface between the MHR1/2 domain and the rib helix; assay: Agonist sensitivity of mutants at the MHR1/2 domain-rib helix interface relative to wild type; format: cell-based, rabbit; details: interface mutants versus wild type, maximum fold
[3] = system: TRPM3 CIM0216 binding site mutants; assay: CIM0216-induced whole-cell currents in CIM0216 binding site mutants; format: cell-based, rabbit; details: whole-cell currents at +140 mV, 22 °C (Fig. 1c)
Description: Figure 1: TRPM3 activation by superagonist CIM0216. a, Structure of TRPM3 in complex with CIM0216, shown in cartoon representation and viewed parallel to the membrane. CIM0216 (green) is fitted into the cryo-EM density map (right panel). One subunit is highlighted in red, and the rib helix from the adjacent subunit is highlighted in cyan. b, Close-up view of the CIM0216 binding site, detailing key interactions. c, Whole-cell currents measured in tsA cells overexpressing wild-type TRPM3 or CIM0216 binding site mutants at 22 °C. […] CIM0216-induced current amplitudes at +140 mV were calculated by subtracting the steady-state current recorded before CIM0216 application from the steady-state current recorded after CIM0216 application. Each point represents a single cell (from left to right, n = 6, 4, 5, 4, 4, 4, 4, 4, 4, 5), with bars indicating the mean. Statistical analysis was performed using one-way ANOVA with Bonferroni’s post hoc test (***P < 0.001). d, Structural comparison of CIM0216-bound activated state (red) and apo resting state (blue), superimposed using the TMD (residues 848–1119). Root-mean-square deviations (r.m.s.d.) are shown for individual domains. Black arrows indicate the approximate direction of domain movements.

wild-type TRPM3 = assay: Primidone inhibition of heat-activated whole-cell currents, wild-type TRPM3; format: cell-based, rabbit; details: WT TRPM3, heat-activated whole-cell currents at 37 °C with primidone (Fig. 4d)
[4] = system: TRPM3 primidone binding site mutants; assay: Primidone inhibition of PregS-induced currents in primidone binding site mutants; format: cell-based, rabbit; details: PregS-induced currents with and without primidone, 22 °C (Fig. 4c)

wild-type rabbit TRPM3 (rTRPM3), sequence (G1T6W8 entry or part of it): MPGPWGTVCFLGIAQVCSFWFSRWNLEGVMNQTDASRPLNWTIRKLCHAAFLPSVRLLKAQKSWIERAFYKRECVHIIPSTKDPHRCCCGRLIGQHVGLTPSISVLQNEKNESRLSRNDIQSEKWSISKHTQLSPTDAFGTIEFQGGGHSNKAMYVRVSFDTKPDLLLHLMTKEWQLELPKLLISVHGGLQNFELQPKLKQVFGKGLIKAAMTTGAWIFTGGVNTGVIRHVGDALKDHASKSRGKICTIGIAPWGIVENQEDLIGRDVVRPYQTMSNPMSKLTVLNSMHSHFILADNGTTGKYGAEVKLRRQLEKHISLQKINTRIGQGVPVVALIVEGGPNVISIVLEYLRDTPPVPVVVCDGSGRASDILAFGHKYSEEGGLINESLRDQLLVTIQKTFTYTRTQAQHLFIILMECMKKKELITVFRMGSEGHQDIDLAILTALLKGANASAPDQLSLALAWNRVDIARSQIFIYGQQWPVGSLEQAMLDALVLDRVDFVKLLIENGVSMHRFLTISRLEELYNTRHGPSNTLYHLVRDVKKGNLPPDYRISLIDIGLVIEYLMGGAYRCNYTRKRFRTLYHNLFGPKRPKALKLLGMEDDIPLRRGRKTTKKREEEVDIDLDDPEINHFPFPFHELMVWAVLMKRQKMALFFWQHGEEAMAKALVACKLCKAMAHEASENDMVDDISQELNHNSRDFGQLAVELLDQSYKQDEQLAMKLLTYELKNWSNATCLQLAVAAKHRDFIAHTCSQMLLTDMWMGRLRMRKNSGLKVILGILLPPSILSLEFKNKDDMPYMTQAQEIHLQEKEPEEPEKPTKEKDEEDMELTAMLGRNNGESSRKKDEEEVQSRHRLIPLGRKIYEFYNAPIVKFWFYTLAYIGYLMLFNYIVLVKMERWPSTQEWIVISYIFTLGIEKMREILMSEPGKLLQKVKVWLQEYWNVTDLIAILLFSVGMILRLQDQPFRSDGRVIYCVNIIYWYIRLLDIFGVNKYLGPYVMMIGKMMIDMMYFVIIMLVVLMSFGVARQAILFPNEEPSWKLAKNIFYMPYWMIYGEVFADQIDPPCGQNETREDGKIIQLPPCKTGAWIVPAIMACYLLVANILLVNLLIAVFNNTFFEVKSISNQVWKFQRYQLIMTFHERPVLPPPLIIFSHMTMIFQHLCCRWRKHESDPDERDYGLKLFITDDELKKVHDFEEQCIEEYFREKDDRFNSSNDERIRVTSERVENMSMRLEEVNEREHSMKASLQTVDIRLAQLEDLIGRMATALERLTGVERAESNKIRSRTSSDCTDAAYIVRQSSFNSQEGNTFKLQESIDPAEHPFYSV

Row | Compound | EC50 [1] | Higher sensitivity of mutants to agonist in dose-response experiments [2] | Effect of alanine substitutions at key binding residues on CIM0216-evoked currents [3] | Effect on heat-induced channel activation (wild-type TRPM3) | Effect of alanine substitutions at key binding residues on the inhibitory effect [4]
1 | Cc1cc(NC(=O)C(c2ccccc2)N2CCCc3ccccc32)no1 (stereo not drawn) [CIM0216] | 700 nM | up to 3 fold | diminished or abolished | – | –
2 | CCC1(c2ccccc2)C(=O)NCNC1=O [primidone] | – | – | – | effectively suppresses heat-induced channel activation | markedly reduced or abolished
3 | pregnenolone sulfate [PregS] | – | up to 13 fold | – | – | –
